Measured values from patent US20260097036A1 (Kadmon Corporation, LLC, priority 2022, published 2026).
Where two headings read alike, the source gives them in different places.

Legend:
[1] = excipient compatibility testing of dry binary mixes; assay type: physicochemical; settings: binary mixes 1:1; 2-8° C. and 40° C./75% RH, over a 14-day period
Description: The dry binary mixes were analyzed for appearance and related substances after storage at 2-8° C. (control storage condition) and 40° C./75% RH for 14 days and 28 days. The binary mixes were also tested for visual appearance at initial mixing.

[2] = tested on: animal models of cGVHD; settings: in vivo; cited from earlier work
[3] = cited from earlier work
[4] = Part 2 relative bioavailability and food effect, plasma PK; assay type: in vivo, human; settings: for Tlag / AUC % extrap / Lambda-z / half-life / Tmax / AUC(0-inf) / AUC(0-t) / Cmax / Vd/F: plasma; for half-life / Tmax / AUC(0-inf) / AUC(0-t) / Cmax / Vd/F: male, human, 200 mg; for Cmax: read-out: Cmax; for Vd/F: read-out: Vz/F
Description: Subjects underwent preliminary screening procedures to determine their eligibility for Part 2 of the study at the screening visit (Day −28 to Day −2 of Part 2). Subjects who took part in Part 1 of the study were permitted to take part in Part 2.
Three different regimens (G, H, and I), were used over the three periods. In Regimen G, belumosudil was administered in Tablet form (reference); and in Regimens H and I, belumosudil was administered in the form of Oral Liquid Formulation.
In Period 1, Day 1: subjects were randomized prior to administration of the first dose of IMP to 1 of 6 treatment sequences (GHI, HIG, IGH, IHG, GIH and HGI) with 3 subjects assigned to each treatment sequence. On Day 1 of each study period (periods 1, 2 and 3), subjects received the regimens in Table 36:
Regimen H was administered to subjects as a flavorless low sucralose liquid formulation in a fasted state, and Regimens G and I were administered to subjects in a fed state. Regimen G was administered with a total of 240 mL of water. For Regimens H and I, immediately after IMP administration, subjects consumed water to a total volume of 240 mL (including the dosing volume).
Subjects received a single dose of IMP in the morning of Day 1 following an overnight fast of a minimum of 10 h (Regimen H, fasted state) or following a standard breakfast (Regimens G and I, fed state). Blood samples were collected at regular intervals for PK analysis. Following administration of Regimen H, subjects completed a written taste/palatability questionnaire individually and privately.
Subjects were resident in the clinical unit for 10 consecutive nights that covered all 3 treatment periods. All subjects remained on site until 72 h post-final dose for safety and PK assessments. There was a minimum washout of 3 days between each IMP administration. To ensure the ongoing wellbeing of the subjects, a follow-up phone call took place 3 to 7 days post-final dose. If a subject reported any AEs after discharge which represented a cause for concern, they were required to attend the clinical unit for a follow-up assessment. This would have been an unscheduled visit.

[5] = stability study with pH modifiers, XRPD of isolated solids (samples 2.1-2.6); assay type: physicochemical; settings: T = 28 days 40° C./75% RH
Description: Samples were prepared containing sodium benzoate as a preservative and with the pH adjusted with either citric acid or tartaric acid which were compared with samples having no pH modifier.
The above samples were prepared for XRPD analysis in three steps: solids were isolated by centrifugation at 3000 rpm for 20 minutes; the supernatant was decanted; and the samples were dried under vacuum at ambient temperature for 18-24 hours overnight. XRPD data of the solid samples was obtained.

[6] = solubility and natural pH of the API; assay type: physicochemical
[7] = tested on: pro-fibrotic signaling; settings: in vitro; cited from earlier work
[8] = po, Regimen G: 200 mg Tablet, Fed, single oral dose, geometric mean (CV%)
[9] = po, Regimen H: 200 mg Liquid Formulation, Fasted, single oral dose, geometric mean (CV%)
[10] = po, Regimen I: 200 mg Liquid Formulation, Fed, single oral dose, geometric mean (CV%)

compatibility with hydrochloric acid and maleic acid [1]: not compatible
Tlag ([4]; Regimen G: 200 mg Tablet, Fed, single oral dose, healthy male volunteers, median (range)): 0.500 h
AUC % extrap ([4]; Regimen G: 200 mg Tablet, Fed, single oral dose, geometric mean (CV%)): 2.601 (44.8%)
Lambda-z ([4]; Regimen G: 200 mg Tablet, Fed, single oral dose, geometric mean (CV%), individual values where n <= 2): 0.074 (57.7%) l/h
Tlag ([4]; Regimen H: 200 mg Liquid Formulation, Fasted, single oral dose, healthy male volunteers, median (range)): 0.00 h
AUC % extrap ([4]; Regimen H: 200 mg Liquid Formulation, Fasted, single oral dose, geometric mean (CV%)): 2.785 (50.4%)
Lambda-z ([4]; Regimen H: 200 mg Liquid Formulation, Fasted, single oral dose, geometric mean (CV%), individual values where n <= 2): 0.073 (43.5%) l/h
Tlag ([4]; Regimen I: 200 mg Liquid Formulation, Fed, single oral dose, healthy male volunteers, median (range)): 0.00 h
AUC % extrap ([4]; Regimen I: 200 mg Liquid Formulation, Fed, single oral dose, geometric mean (CV%)): 1.918 (34.9%)
Lambda-z ([4]; Regimen I: 200 mg Liquid Formulation, Fed, single oral dose, geometric mean (CV%), individual values where n <= 2): 0.102 (49.2%) l/h
time from which concentrations were evident ([4]; liquid formulation, fasted and fed (Regimens H and I)): 0.5 h
half-life ([4]; oral, Regimen G, tablet fed, read-out: elimination half-lives (range)): 4.84 to 33 h
half-life ([4]; oral, Regimen H, liquid formulation fasted, read-out: elimination half-lives (range)): 5.36 to 23.8 h
half-life ([4]; oral, Regimen I, liquid formulation fed, read-out: elimination half-lives (range)): 2.38 to 15.7 h
half-life ([4]; oral, Regimens G, H, I, read-out: geometric mean half-life (range over regimens)): 6.79 to 9.5 h
Tmax ([4]; po, Regimen G: 200 mg Tablet, Fed, single oral dose, healthy male volunteers, median (range), read-out: Tmax): 3 h
AUC(0-inf) [4, 8]: 10200 ng·h/mL
half-life ([4]; po, Regimen G: 200 mg Tablet, Fed, single oral dose, geometric mean (CV%), individual values where n <= 2, read-out: T1/2 (converted)): 9.39 h
AUC(0-t) ([4]; po, Regimen G: 200 mg Tablet, Fed, single oral dose, geometric mean (CV%), read-out: AUC (0-24)): 9310 ng·h/mL
AUC(0-t) ([4]; po, Regimen G: 200 mg Tablet, Fed, single oral dose, geometric mean (CV%), read-out: AUC (0-last)): 9720 ng·h/mL
Cmax [4, 8]: 1930 ng/mL
Vd/F [4, 8]: 265 L
Tmax ([4]; po, Regimen H: 200 mg Liquid Formulation, Fasted, single oral dose, healthy male volunteers, median (range), read-out: Tmax): 1.5 h
AUC(0-inf) [4, 9]: 8430 ng·h/mL
half-life ([4]; po, Regimen H: 200 mg Liquid Formulation, Fasted, single oral dose, geometric mean (CV%), individual values where n <= 2, read-out: T1/2 (converted)): 9.5 h
AUC(0-t) ([4]; po, Regimen H: 200 mg Liquid Formulation, Fasted, single oral dose, geometric mean (CV%), read-out: AUC (0-24)): 7620 ng·h/mL
AUC(0-t) ([4]; po, Regimen H: 200 mg Liquid Formulation, Fasted, single oral dose, geometric mean (CV%), read-out: AUC (0-last)): 8010 ng·h/mL
Cmax [4, 9]: 1550 ng/mL
Vd/F [4, 9]: 325 L
AUC(0-inf) [4, 10]: 9500 ng·h/mL
half-life ([4]; po, Regimen I: 200 mg Liquid Formulation, Fed, single oral dose, geometric mean (CV%), individual values where n <= 2, read-out: T1/2 (converted)): 6.79 h
AUC(0-t) ([4]; po, Regimen I: 200 mg Liquid Formulation, Fed, single oral dose, geometric mean (CV%), read-out: AUC (0-24)): 9340 ng·h/mL
AUC(0-t) ([4]; po, Regimen I: 200 mg Liquid Formulation, Fed, single oral dose, geometric mean (CV%), read-out: AUC (0-last)): 9570 ng·h/mL
Cmax [4, 10]: 1790 ng/mL
Vd/F [4, 10]: 206 L
Tmax ([4]; po, single oral 200 mg as liquid formulation, fasted state, read-out: median Tmax): 1.5 h
Tmax ([4]; po, single oral 200 mg as tablet reference, fed, read-out: median Tmax): 3 h
XRPD of isolated solids (form stability) [5]: stable in the formulation
natural pH of API in water ([6]; API in water): ~3 pH
solubility ([6]; at pH 2.0-3.0): soluble
SMILES: CC(C)NC(=O)COc1cccc(-c2nc(Nc3ccc4[nH]ncc4c3)c3ccccc3n2)c1 [Belumosudil, 2-{3-[4-(1H-indazol-5-ylamino)-2-quinazolinyl]phenoxy}-N-(propan-2-yl)acetamide, reference compound]
activity in animal models of cGVHD [2]: demonstrated activity
solubility in water [3]: practically insoluble
peak (Cmax) and total exposure (AUC), liquid formulation vs tablet ([4]; both in the fed state, GMR comparison): largely similar to that of the tablet reference
aberrant pro-fibrotic signaling [7]: inhibited aberrant pro-fibrotic signaling
